According to US5837256A, “Method for treatment of Lupus nephritis” (priority 1996, dated 1998):

Columns and labels:
[1] = system: LDL cholesterol, cell mediated immunity, PAF production by PMN leucocytes, platelet aggregation; conditions: cited from earlier work
[2] = Lignan content of urine of mice gavaged with SDG; conditions: after oral SDG 0.6, 1.2 and 4.8 mg/mouse (FIG. 1)
Protocol: The mice were dosed with the SDG in amounts of 0.6, 1.2 and 4.8 mg/mouse. Urine samples from the mice were then analysed for lignans.

[3] = Body weight (and food/water intake) of MRL/lpr lupus mice; format: in vivo, MRL/lpr mouse
Protocol: The MRL/lpr mouse model of lupus was chosen to study the effects of SDG on experimental nephritis since it represents the human disease in terms of immune and inflammatory reactions, and age-related renal function deterioration leading to progressive glomerular scarring. Mice were obtained at 5 weeks of age from Jackson Laboratories, Me., U.S.A., and acclimatized for one week. From 6 weeks of age onwards, all groups were gavaged with 200 μl/day of water. The appropriate amount of SDG was dissolved in the water to administer either the low-dose (600 μg/day) or the high-dose (1200 μg/day) of SDG. This example illustrates the effect of SDG on the body weight of MRL/lpr lupus mice in compared to the control group. The daily dosage was administered over a 17-week period (6 to 22 weeks of age).

[4] = system: MRL/lpr mouse model of lupus; test: Onset and prevalence of proteinuria (Albustix) in MRL/lpr lupus mice; format: in vivo
Protocol: (§1) The MRL/lpr mouse model of lupus was chosen to study the effects of SDG on experimental nephritis since it represents the human disease in terms of immune and inflammatory reactions, and age-related renal function deterioration leading to progressive glomerular scarring.
(§2) Mice were obtained at 5 weeks of age from Jackson Laboratories, Me., U.S.A., and acclimatized for one week. From 6 weeks of age onwards, all groups were gavaged with 200 μl/day of water. The appropriate amount of SDG was dissolved in the water to administer either the low-dose (600 μg/day) or the high-dose (1200 μg/day) of SDG.
Gavaging was commenced at the age of 6 weeks in all groups.

[5] = system: MRL/lpr mouse model of lupus; test: Glomerular filtration rate (14C-inulin clearance) in MRL/lpr mice; format: in vivo
Protocol: as §1, §2
This example illustrates the effect of SDG on the glomerular filtration rate (GFR) assessed by ^14 C-inulin clearance.

[6] = system: MRL/lpr mouse model of lupus; test: Cervical lymph node weight in MRL/lpr mice (lymphadenopathy); format: in vivo; conditions: for cervical lymph node weights: n = 10
Protocol: as §1, §2
We therefore examined the effects of low and high dosages of SDG on a deep cervical lymph node in these animals.
The data was non-normally distributed therefore, a non parametric (Kruskal-Wallis) statistical test was used.

[7] = system: MRL/lpr mouse model of lupus; test: Spleen weight index in MRL/lpr mice (splenomegaly); format: in vivo; conditions: for Spleen Weight/Body Weight Ratio (×100): n = 10
Protocol: as §1, §2
We therefore examined the effects of low and high dosages of SDG on spleen weight. The spleen weight index was obtained as a ratio of spleen to body weight (×100).
Data analyzed by ANOVA followed by Bonferroni t-tests

[8] = Gut absorption/conversion of SDG after oral intake; format: in vivo; conditions: human or animal
Text: Enterodiol and enterolactone are trivially referred to as lignans and contain a structural backbone of dibenzylbutane. The most abundant lignan detected in flax is secoisolariciresinol diglucoside (SDG).
The secoisolariciresinol (Seco) may be used per se or in the form of secoisolariciresinol diglucoside (SDG).

[9] = cited from earlier work
[10] = relative to Seco; cited from earlier work
[11] = High-Lignan gp (1200 μg/day), age wk9
[12] = High-Lignan gp (1200 μg/day), age wk11
[13] = High-Lignan gp (1200 μg/day), age wk13
[14] = High-Lignan gp (1200 μg/day), age wk15
[15] = High-Lignan gp (1200 μg/day), age wk17
[16] = High-Lignan gp (1200 μg/day), age wk19
[17] = High-Lignan gp (1200 μg/day), age wk21
[18] = Low-Lignan gp (600 μg/day), age wk9
[19] = Low-Lignan gp (600 μg/day), age wk11
[20] = Low-Lignan gp (600 μg/day), age wk13
[21] = Low-Lignan gp (600 μg/day), age wk15
[22] = Low-Lignan gp (600 μg/day), age wk17
[23] = Low-Lignan gp (600 μg/day), age wk19
[24] = Low-Lignan gp (600 μg/day), age wk21

CC/C=C\C/C=C\C/C=C\CCCCCCCC(=O)O [alpha-linolenic acid]
LDL cholesterol [1]: lower
PAF production by PMN leucocytes [1]: lower
cell mediated immunity [1]: lower
platelet aggregation [1]: lower

OC[C@H](Cc1cccc(O)c1)[C@H](CO)Cc1cccc(O)c1 [enterodiol]
mammalian lignans in the urine [2]: only traces

COc1cc(C[C@@H](CO[C@@H]2O[C@H](CO)[C@@H](O)[C@H](O)[C@H]2O)[C@H](CO[C@@H]2O[C@H](CO)[C@@H](O)[C@H](O)[C@H]2O)Cc2ccc(O)c(OC)c2)ccc1O [SDG, secoisolariciresinol diglucoside]
food intake ([3]; 600 and 1200 μg/day): no significant difference
water intake ([3]; 600 and 1200 μg/day): no significant difference
body weight gain in the different treatment groups ([3]; 600 and 1200 μg/day, 6 to 22 weeks of age): no significant difference
Body Weight ([3]; High-Lignan gp (1200 μg/day), age w22): 38 ± 3 g
Body Weight ([3]; High-Lignan gp (1200 μg/day), age wk5 (before gavage, which began at 6 weeks)): 25 ± 2 g
Body Weight ([3]; High-Lignan gp (1200 μg/day), age wk7): 26 ± 2 g
Body Weight [3, 11]: 27 ± 2 g
Body Weight [3, 12]: 29 ± 2 g
Body Weight [3, 13]: 31 ± 3 g
Body Weight [3, 14]: 34 ± 3 g
Body Weight [3, 15]: 37 ± 3 g
Body Weight [3, 16]: 38 ± 3 g
Body Weight [3, 17]: 39 ± 3 g
Body Weight ([3]; Low-Lignan gp (600 μg/day), age w22): 38 ± 3 g
Body Weight ([3]; Low-Lignan gp (600 μg/day), age wk5 (before gavage, which began at 6 weeks)): 25 ± 2 g
Body Weight ([3]; Low-Lignan gp (600 μg/day), age wk7): 26 ± 3 g
Body Weight [3, 18]: 27 ± 3 g
Body Weight [3, 19]: 29 ± 3 g
Body Weight [3, 20]: 31 ± 3 g
Body Weight [3, 21]: 33 ± 3 g
Body Weight [3, 22]: 36 ± 3 g
Body Weight [3, 23]: 37 ± 3 g
Body Weight [3, 24]: 38 ± 4 g
% of mice with ≥ 2 proteinuria on Albustix [4, 11]: 0%
% of mice with ≥ 2 proteinuria on Albustix ([4]; High-Lignan gp (1200 μg/day), age wk 10): 0%
% of mice with ≥ 2 proteinuria on Albustix [4, 12]: 4%
% of mice with ≥ 2 proteinuria on Albustix ([4]; High-Lignan gp (1200 μg/day), age wk 12): 4%
% of mice with ≥ 2 proteinuria on Albustix [4, 13]: 4%
% of mice with ≥ 2 proteinuria on Albustix ([4]; High-Lignan gp (1200 μg/day), age wk 14): 4%
% of mice with ≥ 2 proteinuria on Albustix [4, 14]: 7%
% of mice with ≥ 2 proteinuria on Albustix ([4]; High-Lignan gp (1200 μg/day), age wk 16): 7%
% of mice with ≥ 2 proteinuria on Albustix [4, 15]: 7%
% of mice with ≥ 2 proteinuria on Albustix ([4]; High-Lignan gp (1200 μg/day), age wk 18): 21%
% of mice with ≥ 2 proteinuria on Albustix [4, 16]: 36%
% of mice with ≥ 2 proteinuria on Albustix ([4]; High-Lignan gp (1200 μg/day), age wk 20): 50%
% of mice with ≥ 2 proteinuria on Albustix [4, 17]: 43%
% of mice with ≥ 2 proteinuria on Albustix ([4]; High-Lignan gp (1200 μg/day), age wks 6-8): 0%
% of mice with ≥ 2 proteinuria on Albustix [4, 18]: 0%
% of mice with ≥ 2 proteinuria on Albustix ([4]; Low-Lignan gp (600 μg/day), age wk 10): 0%
% of mice with ≥ 2 proteinuria on Albustix [4, 19]: 0%
% of mice with ≥ 2 proteinuria on Albustix ([4]; Low-Lignan gp (600 μg/day), age wk 12): 0%
% of mice with ≥ 2 proteinuria on Albustix [4, 20]: 0%
% of mice with ≥ 2 proteinuria on Albustix ([4]; Low-Lignan gp (600 μg/day), age wk 14): 17%
% of mice with ≥ 2 proteinuria on Albustix [4, 21]: 21%
% of mice with ≥ 2 proteinuria on Albustix ([4]; Low-Lignan gp (600 μg/day), age wk 16): 21%
% of mice with ≥ 2 proteinuria on Albustix [4, 22]: 23%
% of mice with ≥ 2 proteinuria on Albustix ([4]; Low-Lignan gp (600 μg/day), age wk 18): 38%
% of mice with ≥ 2 proteinuria on Albustix [4, 23]: 38%
% of mice with ≥ 2 proteinuria on Albustix ([4]; Low-Lignan gp (600 μg/day), age wk 20): 38%
% of mice with ≥ 2 proteinuria on Albustix [4, 24]: 27%
% of mice with ≥ 2 proteinuria on Albustix ([4]; Low-Lignan gp (600 μg/day), age wks 6-8): 0%
onset of proteinuria ([4]; low and high dosages): delay the onset of proteinuria
prevalence of proteinuria ([4]; low and high dosages): reduce the prevalence of proteinuria
dose dependence of benefit on GFR ([5]; 600 and 1200 μg/day): dose-dependant benefit
GFR ([5]; High-Lignan (1200 μg/day), 14 wks of age, n = 9): 8.09 ± 2.74 ml/min/kg body weight
GFR ([5]; High-Lignan (1200 μg/day), 22 wks of age, n = 10): 5.33 ± 3.16 ml/min/kg body weight
GFR ([5]; Low-Lignan (600 μg/day), 14 wks of age, n = 10): 7.41 ± 3.88 ml/min/kg body weight
GFR ([5]; Low-Lignan (600 μg/day), 22 wks of age, n = 10): 4.81 ± 1.49 ml/min/kg body weight
decline of renal function (GFR) ([5]; compared to vehicle treated control group): attenuates the decline of renal function (GFR)
reducing cell proliferation, a marker of immune and inflammatory activity ([6]; Examples 5 and 6 taken together): moderate benefits
cervical lymph node weights ([6]; High-Lignan (1200 μg/day), 14 wks of age): 71 ± 65 mg
cervical lymph node weights ([6]; High-Lignan (1200 μg/day), 22 wks of age, a,b: significantly greater than baseline and than 14 week values): 211 ± 58 mg
cervical lymph node weights ([6]; Low-Lignan (600 μg/day), 14 wks of age, a: significantly greater than baseline): 97 ± 69 mg
cervical lymph node weights ([6]; Low-Lignan (600 μg/day), 22 wks of age, a: significantly greater than baseline): 251 ± 91 mg
increase in lymph node weight ([6]; high dose (1200 μg/day), at/up to 14 weeks of age, Kruskal-Wallis): attenuated the increase in lymph node weight
spleen weight index in the different groups ([7]; 600 and 1200 μg/day, ANOVA, Bonferroni t-tests): no significant difference
Spleen Weight/Body Weight Ratio (×100) ([7]; High-Lignan (1200 μg/day), 14 wks of age, marked a): 0.77 ± 0.26
Spleen Weight/Body Weight Ratio (×100) ([7]; High-Lignan (1200 μg/day), 22 wks of age, marked a,b): 1.74 ± 0.35
Spleen Weight/Body Weight Ratio (×100) ([7]; Low-Lignan (600 μg/day), 14 wks of age, marked a): 0.93 ± 0.33
Spleen Weight/Body Weight Ratio (×100) ([7]; Low-Lignan (600 μg/day), 22 wks of age, marked a,b): 1.89 ± 0.39
spleen weight gain compared to other groups ([7]; high dose SDG group, 14 weeks age-interval): moderately smaller spleen weight gain
conversion in the gut after oral administration [8]: converted to secoisolariciresinol in the gut
metabolism on ingestion ([9]; enzymatic hydrolysis and intestinal microflora): enzymatically hydrolyzed to the aglycone and transformed by intestinal microflora into enterodiol and enterolactone
absorption across the gut wall ([9]; generally accepted for diglycosides): not absorbed across the gut wall
water solubility compared with Seco [10]: greater water solubility

COc1cc(CC(CO)C(CO)Cc2ccc(O)c(OC)c2)ccc1O (stereo not drawn) [secoisolariciresinol]
secoisolariciresinol concentrations in the urine [2]: SDG dose dependent
